Experimental data from publication PMC2761383, “Structural and functional characteristics of xenavidin, the first frog avidin from Xenopus tropicalis” (BMC Structural Biology, 2009).

Key:
[1] = Fluorescence spectroscopy dissociation analysis of fluorescent Bf560-biotin; assay type: binding
Protocol: The Quanta Master™ spectrofluorometer (Photon Technology International Inc., Lawrenceville, NJ) with a PTI Fluorescence Master System and the software Felix 32 was used to measure the biotin-binding properties of avidin, xenavidin and streptavidin. The analyses were done in a 50 mM sodium phosphate buffer (pH 7.0) containing 650 mM NaCl at two different temperatures (25 ± 1°C and 50 ± 1°C) by measuring the reversing of quenching of the biotin-coupled fluorescent probe ArcDia™ Bf560 (ArcDia Ltd., Turku, Finland) due to competition with free biotin (100-fold molar excess) as previously described. The spectrum of Bf560-biotin in the presence and absence of avidin is shown in [Additional file 4].

[2] = Optical biosensor analysis (Biacore X) of 2-iminobiotin binding
Description: The Biacore X optical biosensor instrument was used in the analysis, where the CM5 sensor chip was functionalized with 2-iminobiotin. The functionalization of the chip was done in three phases: First, the carboxymethyl dextrane was activated using a mixture containing 0.2 M EDC (1-ethyl-3-(3-dimethylaminopropyl) carbodiimide hydrochloride) and 0.05 M NHS (N-hydroxysuccinimide) in water. Second, in order to introduce amino groups to the surface, 1 M ethylenediamine (Fluka 03550) in water was applied. Third, a mixture of EDC (0.2 M) and 2-iminobiotin (10 mM) was applied on the surface in 25 mM Na-phosphate pH 6.5. The amount of 2-iminobiotin attached on the surface was 81 response units.
Xenavidin was injected onto the sensor chip in a 50 mM sodium carbonate buffer (pH 11.0) containing 1 M NaCl at 25°C and using a flow rate of 50 μl/min. […] The surface was regenerated between measurement cycles by injecting 20 μl of 0.5 M acetic acid followed by washing with the measurement buffer.
BIAevaluation software v. 4.1 was used for data analysis, and a global fitting method was used to analyze the data set. A period of 20 seconds from the beginning of each injection was included in the association phase fit and the dissociation rate analysis was performed for a 60-second period starting immediately after the end of the injection.

[3] = tested on: proteinase K; assay: Limited proteolysis with proteinase K
Protocol: The stability of xenavidin against the proteinase K enzyme, which is known to cleave the L3,4-loop of avidin [41], was tested. The assay was performed in the presence or absence of biotin as previously described by Laitinen et al.. Protein samples were taken before the enzyme treatment and after adding enzyme at time points 30 min, 1 h, 2 h, 3 h, 18 h and 22 h (data not shown), and the samples were analyzed using SDS-PAGE analysis and Coomassie Brilliant Blue (Serva, Heidelberg, Germany) staining.

[4] = competition with free biotin (100-fold molar excess), pH 7.0
[5] = 2-iminobiotin chip, pH 11.0, 1 M NaCl, 25°C

| Kd [2, 5] [nM] | kass [2, 5] [M⁻¹ s⁻¹] | kdiss [2, 5] [s⁻¹] | Kd ([2]; 2-iminobiotin functionalized chip, rounded value) [nM] | Substance | Dissociation rate constant at 50°C [1, 4] | Release after 1 h at 50°C [1] [%] | stability against proteinase K ([3]; absence of biotin) | stability against proteinase K ([3]; presence of biotin) | Dissociation rate constant at 25°C ([1]; 25°C, competition with free biotin (100-fold molar excess), pH 7.0) |
| --- | --- | --- | --- | --- | --- | --- | --- | --- | --- |
| 85 | 200000 | 0.017 | – | Streptavidin: bacterial biotin-binding protein from Streptomyces avidinii (Biomol GmbH); control sample | 0.7 s^-1 (× 10^-5) | 5.1 | – | – | – |
| 102 | 94000 | 0.0096 | 100 | Avidin: chicken avidin, biotin-binding protein; control sample expressed in E. coli | 32.6 s^-1 (× 10^-5) | 76.5 | fragments of 10 kDa and below | protected avidin from proteolytic cleavage | 2.3 s^-1 (× 10^-5) |
